Assay [1] has as its system THP1, HL60, and K562 cells. The assay can be described thus: Annexin V/7AAD apoptosis after tunicamycin treatment. It is filed as cell-based, human. The note with it: tunicamycin 10 μM alone, FIG. 7. On the procedure: Apoptosis was measured after treating SURF4 shRNA-transfected THP1, HL60, and K562 cells with tunicamycin. The transfected SURF4 shRNA was the same as in Example 1-(1). Specifically, the concentration of tunicamycin treated in the THP1, HL60, and K562 cells was 10 μM, and after transfecting the cells with SURF4 shRNA, the cells were treated with tunicamycin 7 to 10 days later. Afterward, cells of each type were collected and suspended with an Annexin V binding buffer, and then Annexin V-FITC and 7AAD were added to perform measurement using a FACS flow cytometer.

For assay [2], the system named is THP1, HL60, and K562 cells. Kind of assay: Annexin V/7AAD apoptosis after paclitaxel treatment. It is filed as cell-based, human. The note with it: paclitaxel 0.5 μM alone, FIG. 5. The protocol: Apoptosis was measured after treating SURF4 shRNA-transfected THP1, HL60, and K562 cells with paclitaxel. The transfected SURF4 shRNA was the same as in Example 1-(1). Specifically, the concentration of paclitaxel treated in the THP1, HL60, and K562 cells was 0.5 μM, and after transfecting the cells with SURF4 shRNA, the cells were treated with paclitaxel 7 to 10 days later. Afterward, cells of each type were collected and suspended with an Annexin V binding buffer, and then Annexin V-FITC and 7AAD were added to perform measurement using a FACS flow cytometer.

For assay [3], the system named is STING in myeloid leukemia cells. Kind of assay: Apoptosis and pTBK1 expression after cGAMP treatment. Type of assay: cell-based. The note with it: cells treated with cGAMP; FIG. 15B. The protocol: Based on a report that STING, one of the endoplasmic reticulum membrane proteins, induces apoptosis and binds to SURF4 and STAT6, cells were treated with cGAMP, which induces STING. Specifically, cells were collected and lysed with a lysis buffer to extract proteins, which were then separated on a 10% SDS-PAGE gel and transferred to a membrane. pJNK, JNK, BAX, caspase 9, cleaved caspase 9, caspase 3, cleaved caspase 3, PARP, IRE1α, GRP78, PERK, pelF2α, elF2α, ATF4, CHOP, pSTAT6, STAT6, STING, pTBK1, and actin antibodies were each added, allowed to stand at 4° C. for 16 hours, and then a secondary antibody was added and allowed to stand at room temperature for one hour. Afterward, the resulting mixture was allowed to react with an ECL reagent, and the ECL was measured using a chemiluminescence image analyzer.

The test system of assay [4] is pSTAT6 in THP1 and HL60 cells. The assay can be described thus: Western blot of pSTAT6 after IL4 treatment. It is filed as cell-based, human. The note with it: IL4 5 ng/ml for 60 minutes, FIG. 12. The protocol:
Based on a report that apoptosis is induced by pSTAT6 through IL4 in leukemia cells, the expression of pSTAT6 was confirmed by treating a leukemia cell line with IL4, which induces STAT6. Specifically, THP1 and HL60 cells transfected with 6 μg of SURF4 shRNA were lysed by treating them with IL4 (5 ng/ml) for 60 minutes, and then Western blot was performed, and the SURF4 expression in the THP1 and HL60 cells transfected with SURF4 shRNA was measured by qRT-PCR. The cells were lysed with a lysis buffer to extract proteins, which were then separated on a 10% SDS-PAGE gel and transferred to a membrane. pJNK, JNK, BAX, caspase 9, cleaved caspase 9, caspase 3, cleaved caspase 3, PARP, IRE1α, GRP78, PERK, pelF2α, elF2α, ATF4, CHOP, pSTAT6, STAT6, STING, pTBK1, and actin antibodies were each added, allowed to stand at 4° C. for 16 hours, and then a secondary antibody was added and allowed to stand at room temperature for one hour. Afterward, the resulting mixture was allowed to react with an ECL reagent, and the ECL was measured using a chemiluminescence image analyzer. In addition, RNA was extracted from the cells using an RNA extraction kit, and cDNA was synthesized from the RNA using a cDNA synthesis kit. A qRT-PCR analysis was performed using the synthesized cDNA, SURF4 primers, and a SYBR green.
In general terms: A western blot detects proteins with antibodies after separation by electrophoresis.

Results on four molecules are retold here after patent US20250019703A1, “PHARMACEUTICAL COMPOSITION FOR PREVENTION OR TREATMENT OF BLOOD CANCER COMPRISING SURF4 INHIBITOR” (PUSAN NATIONAL UNIVERSITY INDUSTRY-UNIVERSITY COOPERATION …, priority 2021, published 2025).

Take tunicamycin: the apoptosis result in assay [1] is reported as “induced apoptosis”.
For `CC(=O)O[C@H]1C(=O)[C@@]2(C)[C@H]([C@H](OC(=O)c3ccccc3)[C@]3(O)C[C@H](OC(=O)[C@H](O)[C@@H](NC(=O)c4ccccc4)c4ccccc4)C(C)=C1C3(C)C)[C@]1(OC(C)=O)CO[C@@H]1C[C@@H]2O` [paclitaxel], the apoptosis result in assay [2] is “induced apoptosis”.
In the case of `Nc1nc2c(ncn2[C@@H]2O[C@@H]3COP(=O)(O)O[C@H]4[C@@H](O)[C@H](n5cnc6c(N)ncnc65)O[C@@H]4COP(=O)(O)O[C@@H]2[C@@H]3O)c(=O)[nH]1` [cGAMP, cyclic guanosine monophosphate-adenosine monophosphate], the pTBK1 expression entry in assay [3] is on record as “pTBK1 downstream of STING increased”.

B1: IL4: interleukin-4, which induces STAT6 / the expression of pSTAT6 (protein, UniProt P05112 25-153, looked up)
Interleukin-4: HKCDITLQEIIKTLNSLTEQKTLCTELTVTDIFAASKNTTEKETFCRAATVLRQFYSHHEKDTRCLGATAQQFHRHKQLIRFLKRLDRNLWGLAGLNSCPVKEANQSTLENFLERLKTIMREKYSKCSS
B1: in assay [4], the “pSTAT6 expression (Western blot)” value is “pSTAT6 increased in both the control cells and the cells transfected with SURF4 shRNA”.
